Drawing on US20140045890A1, “NOVEL COMPOUNDS” (SYNGENTA PARTICIPATIONS AG, priority 2011, published 2014), this text covers inhibition and melting point for 18 compounds.

The structures appear in SMILES notation.

Data set [1] has as its system Blumeria qraminis f. sp. tritici (Erysiphe qraminis f. sp. tritici). The data set can be described thus: Blumeria graminis f. sp. tritici / wheat / leaf disc preventative (powdery mildew on wheat). Format: in vivo. To be noted: foliar, wheat leaf segments cv. Kanzler, inoculated 1 day after application, assessed 6-8 days after application, read-out: inhibit fungal infestation (percent disease control compared to untreated).

Another data set deals with Pythium ultimum. Kind of data set: Pythium ultimum / liquid culture (seedling damping off). Format: cell-based. As to conditions: Globisporangium ultimum, liquid culture in PDB, 24° C., 2-3 days after application, read-out: inhibit fungal infestation (inhibition of growth determined photometrically).
The subject of another data set is Plasmopara viticola. Kind of data set: Plasmopara viticola / grape / leaf disc preventative. Format: in vivo. As to conditions: foliar, grape vine leaf disks, inoculated 1 day after application, assessed 6-8 days after application, read-out: inhibit fungal infestation (percent disease control compared to untreated).
The subject of a further data set is Phytophthora infestans. Kind of data set: whole plant or invertebrate. Format: in vivo. As to conditions: in Solanum lycopersicum, foliar, read-out: inhibit fungal infestation (percent disease control compared to untreated).

The melting point is the temperature of the solid-liquid transition.

`CSC(Oc1cc(Cl)c2ncc(Br)cc2c1)C(=O)NCc1ccno1` (stereo not shown) [Compound 1] yielded a melting point of 143 °C. Besides, in data set [1], the inhibition at 200 ppm is at least 80%.
Compound `CSC(Oc1ccc2ncc(I)cc2c1)C(=O)NCc1ccno1` (stereo not shown) [Compound 2] came in with a melting point of 153 °C. Besides, the inhibition at 200 ppm with Pythium ultimum is at least 80%. The inhibition at 200 ppm in data set [1] was at least 80%.
As to `CSC(Oc1ccc2ncc(Br)cc2c1)C(=O)NCc1ccno1` (stereo not shown) [Compound 3], the melting point worked out at 140 °C. In addition, the inhibition at 200 ppm in the data set on Pythium ultimum was at least 80%. Further, in data set [1], the inhibition at 200 ppm was at least 80%.
Compound `CSC(Oc1ccc2ncc(Br)cc2c1)C(=O)NCc1ccccn1` (stereo not shown) [Compound 5] yielded a melting point of 104 °C. In addition, the inhibition at 200 ppm in the data set on Pythium ultimum was at least 80%.
`CSC(Oc1ccc2ncc(I)cc2c1)C(=O)NCc1ccccn1` (stereo not shown) [Compound 6] gave a melting point of 109 °C. The inhibition at 200 ppm in the data set with Pythium ultimum is at least 80%. Moreover, the inhibition at 200 ppm in data set [1] was at least 80%.
As to `COC(Oc1cc(Cl)c2ncc(Br)cc2c1)C(=O)NC(C)(C)c1ccccn1` (stereo not shown) [Compound 14], the melting point came to 95 °C.
The compound `C#Cc1cnc2c(C)cc(OC(SC)C(=O)NC(C)(C)c3cccc(C)n3)cc2c1` (stereo not shown) [Compound 16] had a melting point of 123 °C. For the same compound, the inhibition at 200 ppm in the data set with Pythium ultimum was at least 80%. Further, the inhibition at 200 ppm in data set [1] was at least 80%. Besides, the inhibition at 200 ppm with Plasmopara viticola is at least 80%.
Compound `C#Cc1cnc2ccc(OC(SC)C(=O)NC(C)(C)c3ccc(Cl)nc3)cc2c1` (stereo not shown) [Compound 27] returned a melting point of 114 °C. In the data set on Pythium ultimum, the inhibition at 200 ppm is at least 80%.
As for `C#Cc1cnc2c(F)cc(OC(SC)C(=O)NC(C)(C)c3cc(COC)on3)cc2c1` (stereo not shown) [Compound 89], the inhibition at 200 ppm (with Pythium ultimum; with Phytophthora infestans; in data set [1]; in the data set on Plasmopara viticola) was at least 80% each time.
Regarding `C#Cc1cnc2c(C)cc(OC(SC)C(=O)NC(C)(C)c3cc(CC)on3)cc2c1` (stereo not shown) [Compound 94], the inhibition at 200 ppm (with Pythium ultimum; in the data set with Phytophthora infestans; in data set [1]; in the data set with Plasmopara viticola) was at least 80% in each case.
For the compound `C#Cc1cnc2c(Cl)cc(OC(SC)C(=O)NC(C)(C)c3cc(COC)on3)cc2c1` (stereo not shown) [Compound 96], the inhibition at 200 ppm (in the data set on Pythium ultimum; in the data set on Phytophthora infestans; in data set [1]; in the data set on Plasmopara viticola) was at least 80% in each case.
Turning to `COCc1cc(C(C)(C)NC(=O)C(Oc2ccc3ncc(I)cc3c2)SC)no1` (stereo not shown) [Compound 105], the inhibition at 200 ppm (in the data set on Pythium ultimum; with Phytophthora infestans; in data set [1]; with Plasmopara viticola) was at least 80% in each case.
On to `CSC(Oc1ccc2ncc(I)cc2c1)C(=O)NC(C)(C)c1cc(C)on1` (stereo not shown) [Compound 109], for which the inhibition at 200 ppm (in the data set on Pythium ultimum; in the data set on Phytophthora infestans; in data set [1]; with Plasmopara viticola) was at least 80% in each case.
Turning to `CSC(Oc1ccc2ncc(I)cc2c1)C(=O)NC(C)(C)c1nocc1C` (stereo not shown) [Compound 110], the inhibition at 200 ppm (with Pythium ultimum; with Phytophthora infestans; in data set [1]; in the data set on Plasmopara viticola) was at least 80% in each case.
As for `C=Cc1cnc2ccc(OC(SC)C(=O)NC(C)(C)c3ccccn3)cc2c1` (stereo not shown) [Compound 133, N-[1-methyl-1-(2-pyridyl)ethyl]-2-methylsulfanyl-2-[(3-vinyl-6-quinolyl)oxy]acetamide], the melting point lay within 95 to 97 °C.
`C=Cc1cnc2c(Cl)cc(OC(CC)C(=O)NC(C)(C)c3ccon3)cc2c1` (stereo not shown) [Compound 136] registered a melting point of 104 °C. The inhibition at 200 ppm in the data set with Pythium ultimum is at least 80%. In data set [1], the inhibition at 200 ppm is at least 80%.
Regarding `C=Cc1cnc2c(F)cc(OC(OC)C(=O)NC(C)(C)c3ccon3)cc2c1` (stereo not shown) [Compound 138], the melting point is 118 °C. Also, the inhibition at 200 ppm in data set [1] was at least 80%.
For `COC(Oc1cc(Cl)c2ncc(Br)cc2c1)C(=O)NC(C)(C)c1nccs1` (stereo not shown) [Compound 140], in that order: 111 °C and at least 80%.
